One assay deals with T1, human V2 receptor (Homo sapiens, UniProt P30518).
T1 construct: expressed in transfected cells; host or cells: CHO K1 (ATCC), constitutively expressing modified aequorin, co-transfected with promiscuous G-alpha-16
The assay is described as follows: Cellular in vitro assay for determining the vasopressin receptor activity (aequorin luminescence, recombinant CHO cells), human V2. In kind it is cell-based. The conditions noted are these: CHO cells expressing aequorin and Gα16, transfected with human V2 receptor; agonist [Arg8]-vasopressin; read-out: IC50 hV2. An excerpt:
(§1) B-1. Cellular In Vitro Assay for Determining the Vasopressin Receptor Activity
(§2) The identification of agonists and antagonists of the V1a and V2 vasopressin receptors from humans and rats and also the quantification of the activity of the substances described here takes place using recombinant cell lines. These cells derive originally from a hamster's ovary epithelial cell (Chinese Hamster Ovary, CHO K1, ATCC: American Type Culture Collection, Manassas, Va. 20108, USA). The test cell lines constitutively express a modified form of the calcium-sensitive photoprotein aequorin, which, after reconstitution with the cofactor coelenterazine, emits light when there are increases in the free calcium concentration (Rizzuto R., Simpson A. W., Brini M., Pozzan T.; Nature 358 (1992) 325-327). In addition, the cells are stably transfected with the human or rat V1a or V2 receptors. In the case of the Gs-coupling V2 receptors, the cells are stably transfected with a further gene, which codes for the promiscuous Gα16 protein (Amatruda T. T., Steele D. A., Slepak V. Z., Simon M A., Proc. Na. Acad. Sci. USA 88 (1991), 5587-5591), either independently or as a fusion gene. The resulting vasopressin receptor test cells react to stimulation of the recombinantly expressed vasopressin receptors by intracellular release of calcium ions, which can be quantified by the resulting aequorin luminescence using a suitable luminometer (Milligan G., Marshall F., Rees S., Trends in Pharmaco. Sci. 17 (1996) 235-237).
(§3) On the day before the assay, the cells are plated out in culture medium (DMEM, 10% FCS, 2 mM glutamine, 10 mM HEPES) in 384-well microtiter plates and kept in a cell incubator (96% atmospheric humidity, 5% v/v carbon dioxide, 37° C.). On the day of the assay, the culture medium is replaced by a Tyrode solution (140 mM sodium chloride, 5 mM potassium chloride, 1 mM magnesium chloride, 2 mM calcium chloride, 20 mM glucose, 20 mM HEPES), which additionally contains the cofactor coelenterazine (50 μM), and the microtiter plate is then incubated for a further 3-4 hours. The test substances in various concentrations are placed for 10 to 20 minutes in the wells of the microtiter plate before the agonist [Arg8]-vasopressin is added, and the resulting light signal is measured immediately in the luminometer. The IC50 values are calculated using the GraphPad PRISM computer program (Version 3.02).
(§4) Table A below lists representative IC50 values for the compounds according to the invention transfected with the human V1a or V2 receptor: […]

For another assay, the target named is T2, human V1a receptor (Homo sapiens, UniProt P37288).
T2 construct: expressed in transfected cells; host or cells: CHO K1 (ATCC), constitutively expressing modified aequorin
T2 sequence (P37288 whole entry): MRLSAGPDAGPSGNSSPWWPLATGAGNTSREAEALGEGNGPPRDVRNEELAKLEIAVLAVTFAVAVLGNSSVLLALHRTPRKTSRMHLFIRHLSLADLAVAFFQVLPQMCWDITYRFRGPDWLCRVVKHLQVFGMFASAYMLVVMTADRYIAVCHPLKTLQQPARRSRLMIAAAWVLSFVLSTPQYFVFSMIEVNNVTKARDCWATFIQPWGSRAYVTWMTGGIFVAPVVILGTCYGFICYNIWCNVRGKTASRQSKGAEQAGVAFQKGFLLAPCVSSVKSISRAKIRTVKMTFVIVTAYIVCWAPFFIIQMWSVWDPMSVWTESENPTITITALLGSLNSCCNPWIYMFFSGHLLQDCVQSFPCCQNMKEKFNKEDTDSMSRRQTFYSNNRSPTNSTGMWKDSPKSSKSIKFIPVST
Kind of assay: Cellular in vitro assay for determining the vasopressin receptor activity (aequorin luminescence, recombinant CHO cells), human V1a. In kind it is cell-based. The conditions noted are these: CHO cells expressing aequorin, transfected with human V1a receptor; agonist [Arg8]-vasopressin; read-out: IC50 hV1a.
Text: as §1, §2, §3, §4

The structures appear in SMILES notation.

T1 sequence (P30518 whole entry): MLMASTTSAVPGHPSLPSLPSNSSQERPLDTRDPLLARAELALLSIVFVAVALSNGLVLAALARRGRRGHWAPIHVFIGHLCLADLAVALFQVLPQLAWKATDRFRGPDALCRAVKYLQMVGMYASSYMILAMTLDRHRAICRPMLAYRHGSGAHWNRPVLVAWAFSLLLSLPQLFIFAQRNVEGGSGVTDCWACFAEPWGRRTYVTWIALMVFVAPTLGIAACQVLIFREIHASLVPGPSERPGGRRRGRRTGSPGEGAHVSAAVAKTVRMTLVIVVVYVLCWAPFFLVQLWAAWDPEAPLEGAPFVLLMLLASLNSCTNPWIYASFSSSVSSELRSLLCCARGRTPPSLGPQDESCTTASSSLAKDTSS

As for `CC(C)(NC(=O)C(NC(=O)Cn1nc(-c2ccc(Cl)cc2)n(C[C@H](O)C(F)(F)F)c1=O)c1cccc(C(F)(F)F)c1)C(N)=O` (single isomer, unassigned) [Example 29], the results for the IC50 at human V2 receptor and at human V1a receptor were 3.3 nM and 1 nM, respectively.

Consider `COC(=O)C(C)(C)NC(=O)C(NC(=O)Cn1nc(-c2ccc(Cl)cc2)n(C2CC2)c1=O)c1cccc(C(F)(F)F)c1` (racemic) [Example 11, Methyl N-{({[3-(4-chlorophenyl)-4-cyclopropyl-5-oxo-4,5-dihydro-1H-1,2,4-triazol-1-yl]acetyl}-amino)[3-(trifluoromethyl)phenyl]acetyl}-2-methylalaninate], for which the results for the IC50 at human V2 receptor and at human V1a receptor were 497 nM and 28 nM, respectively.

As to `COCCn1c(-c2ccc(Cl)s2)nn(CC(=O)NC(C(=O)NC(C)(C)CO)c2cccc(C(F)(F)F)c2)c1=O` (single isomer, unassigned) [Example 43, 2-({[3-(5-Chloro-2-thienyl)-4-(2-methoxyethyl)-5-oxo-4,5-dihydro-1H-1,2,4-triazol-1-yl]acetyl}amino)-N-(1-hydroxy-2-methylpropan-2-yl)-2-[3-(trifluoromethyl)phenyl]acetamide], the results for the IC50 at human V2 receptor and at human V1a receptor were 1600 nM and 60 nM, respectively.

For the compound `CC(C)(NC(=O)[C@](C)(NC(=O)Cn1nc(-c2ccc(Cl)cc2)n(C[C@H](O)C(F)(F)F)c1=O)c1cccc(C(F)(F)F)c1)C(N)=O` [Example 22, N^2-{(2R)-2-[({3-(4-Chlorophenyl)-5-oxo-4-[(2S)-3,3,3-trifluoro-2-hydroxypropyl]-4,5-dihydro-1H-1,2,4-triazol-1-yl}acetyl)amino]-2-[3-(trifluoromethyl)phenyl}propanoyl]-2-methylalaninamide], the IC50 at human V2 receptor turned out to be 2.7 nM; at human V1a receptor, 1.2 nM.

As to `CC(C)(NC(=O)C(NC(=O)Cn1nc(-c2ccc(Cl)cc2)n(Cc2ccccc2F)c1=O)c1cccc(Cl)c1Cl)C(N)=O` (racemic) [Example 36, N^2-[({[3-(4-Chlorophenyl)-4-(2-fluorobenzyl)-5-oxo-4,5-dihydro-1H-1,2,4-triazol-1-yl]acetyl}-amino)(2,3-dichlorophenyl)acetyl]-2-methylalaninamide], the figures for the 50% inhibitory concentration (IC50) on human V2 receptor and on human V1a receptor were 780 nM and 88.2 nM, respectively.

With `O=C(Cn1nc(-c2ccc(Cl)cc2)n(C[C@H](O)C(F)(F)F)c1=O)NC(C(=O)NC1(C(=O)O)CC1)c1cccc(C(F)(F)F)c1` (single isomer, unassigned) [Example 3], the 50% inhibitory concentration (IC50) on human V2 receptor amounted to 467 nM; on human V1a receptor, 554 nM.

As for `C[C@](NC(=O)Cn1nc(-c2ccc(Cl)cc2)n(C[C@H](O)C(F)(F)F)c1=O)(C(=O)NCCC(N)=O)c1cccc(C(F)(F)F)c1` [Example 19, N^3-{(2R)-2-[({3-(4-Chlorophenyl)-5-oxo-4-[(2S)-3,3,3-trifluoro-2-hydroxypropyl]-4,5-dihydro-1H-1,2,4-triazol-1-yl}acetyl)amino]-2-[3-(trifluoromethyl)phenyl]propanoyl}-beta-alaninamide], the IC50 at human V2 receptor came out at 1.1 nM; on human V1a receptor, 0.6 nM.

In the case of `NC(=O)CCNC(=O)C(NC(=O)Cn1nc(-c2ccc(Cl)cc2)n(C[C@H](O)C(F)(F)F)c1=O)c1cccc(C(F)(F)F)c1` (single isomer, unassigned) [Example 17], the values for the IC50 on human V2 receptor and at human V1a receptor were 22 nM and 1420 nM, respectively.

With `O=C(Cn1nc(-c2ccc(Cl)cc2)n(C[C@H](O)C(F)(F)F)c1=O)NC(C(=O)NCCOC(F)(F)F)c1cccc(C(F)(F)F)c1` (single isomer, unassigned) [Example 60], the IC50 on human V2 receptor is 19.7 nM; at human V1a receptor it was 3 nM.

Take `CC(C)(CO)NC(=O)C(NC(=O)Cn1nc(-c2ccc(Cl)cc2)n(C[C@H](O)C(F)(F)F)c1=O)c1cccc(C(F)(F)F)c1` (single isomer, unassigned) [Example 41]: the IC50 at human V2 receptor amounted to 3.6 nM; at human V1a receptor, 1.5 nM.

`O=C(O)CCNC(=O)C(NC(=O)Cn1nc(-c2ccc(Cl)cc2)n(C[C@H](O)C(F)(F)F)c1=O)c1cccc(C(F)(F)F)c1` (stereo partly drawn) [Example 14, N-{[({3-(4-Chlorophenyl)-5-oxo-4-[(2S)-3,3,3-trifluoro-2-hydroxypropyl]-4,5-dihydro-1H-1,2,4-triazol-1-yl}acetyl)amino][3-(trifluoromethyl)phenyl]acetyl}-beta-alanine]: the values for the IC50 at human V2 receptor and at human V1a receptor were 9 nM and 53 nM, respectively.

Consider `O=C(C[C@H](NC(=O)Cn1nc(-c2ccc(Cl)cc2)n(C[C@H](O)C(F)(F)F)c1=O)c1ccccc1C(F)(F)F)NCCO` [Example 53, (3S)-3-[({3-(4-Chlorophenyl)-5-oxo-4-[(2S)-3,3,3-trifluoro-2-hydroxypropyl]-4,5-dihydro-1H-1,2,4-triazol-1-yl}acetyl)amino]-N-(2-hydroxyethyl)-3-[2-(trifluoromethyl)phenyl]propanamide], for which the half-maximal inhibitory concentration (IC50) came out at 2.6 nM on human V2 receptor and 0.9 nM at human V1a receptor.

Regarding `CC(C)(CO)NC(=O)C(NC(=O)Cn1nc(-c2ccc(Cl)cc2)n(C[C@H](O)C(F)(F)F)c1=O)c1cccc(C(F)(F)F)c1` (single isomer, unassigned) [Example 42], the values for the IC50 at human V2 receptor and at human V1a receptor were 158 nM and 38 nM, respectively.

Turning to `COCCNC(=O)C[C@H](NC(=O)Cn1nc(-c2ccc(Cl)cc2)n(C[C@H](O)C(F)(F)F)c1=O)c1ccccc1C(F)(F)F` [Example 58, (3S)-3-[({3-(4-Chlorophenyl)-5-oxo-4-[(2S)-3,3,3-trifluoro-2-hydroxypropyl]-4,5-dihydro-1H-1,2,4-triazol-1-yl}acetyl)amino]-N-(2-methoxyethyl)-3-[2-(trifluoromethyl)phenyl]propanamide], the IC50 on human V2 receptor turned out to be 136 nM; at human V1a receptor, 3.5 nM.

Take `CC(C)(NC(=O)C(NC(=O)Cn1nc(-c2ccc(Cl)cc2)n(C2CC2)c1=O)c1cccc(C(F)(F)F)c1)C(=O)O` (racemic) [Example 12, N-{({[3-(4-Chlorophenyl)-4-cyclopropyl-5-oxo-4,5-dihydro-1H-1,2,4-triazol-1-yl]acetyl}amino) [3-(trifluoromethyl)phenyl]acetyl}-2-methylalanine]: the IC50 at human V2 receptor was 182 nM; on human V1a receptor, 24 nM.

Consider `NC(=O)CCNC(=O)C(NC(=O)Cn1nc(-c2ccc(Cl)cc2)n(C[C@H](O)C(F)(F)F)c1=O)c1cccc(C(F)(F)F)c1` (single isomer, unassigned) [Example 18], for which the half-inhibitory concentration (IC50) on human V2 receptor turned out to be 1.9 nM; on human V1a receptor it was 1.2 nM.

In the case of `CC(C)(NC(=O)C(NC(=O)Cn1nc(-c2ccc(Cl)cc2)n(C[C@H](O)C(F)(F)F)c1=O)c1cccc(C(F)(F)F)c1)C(N)=O` (single isomer, unassigned) [Example 28], the figures for the IC50 on human V2 receptor and on human V1a receptor were 346 nM and 1380 nM, respectively.

For `O=C(O)CCNC(=O)C(NC(=O)Cn1nc(-c2ccc(Cl)cc2)n(C2CC2)c1=O)c1cccc(C(F)(F)F)c1` (racemic) [Example 16, N-{({[3-(4-Chlorophenyl)-4-cyclopropyl-5-oxo-4,5-dihydro-1H-1,2,4-triazol-1-yl]acetyl}amino) [3-(trifluoromethyl)phenyl]acetyl}-beta-alanine], the figures for the IC50 on human V2 receptor and at human V1a receptor were 262 nM and 524 nM, respectively.

Take `CC(C)(NC(=O)C[C@H](NC(=O)Cn1nc(-c2ccc(Cl)cc2)n(C[C@H](O)C(F)(F)F)c1=O)c1cccc(C(F)(F)F)c1)C(=O)O` [Example 39, N-{(3S)-3-[({3-(4-Chlorophenyl)-5-oxo-4-[(2S)-3,3,3-trifluoro-2-hydroxypropyl]-4,5-dihydro-1H-1,2,4-triazol-1-yl}acetyl)amino]-3-[3-(trifluoromethyl)phenyl]propanoyl}-2-methylalanine]: the results for the half-maximal inhibitory concentration (IC50) at human V2 receptor and on human V1a receptor were 0.8 nM and 4.9 nM, respectively.

As to `O=C(Cn1nc(-c2ccc(Cl)cc2)n(C[C@H](O)C(F)(F)F)c1=O)NC(C(=O)NCCOC(F)(F)F)c1cccc(C(F)(F)F)c1` (single isomer, unassigned) [Example 59], the values for the IC50 at human V2 receptor and at human V1a receptor were 61 nM and 136 nM, respectively.

On to `COC(=O)C(C)(C)NC(=O)[C@](C)(NC(=O)Cn1nc(-c2ccc(Cl)cc2)n(C[C@H](O)C(F)(F)F)c1=O)c1cccc(C(F)(F)F)c1` [Example 20, Methyl N-{(2R)-2-[({3-(4-chlorophenyl)-5-oxo-4-[(2S)-3,3,3-trifluoro-2-hydroxypropyl]-4,5-dihydro-1H-1,2,4-triazol-1-yl}acetyl)amino]-2-[3-(trifluoromethyl)phenyl]propanoyl}-2-methylalaninate], for which the results for the IC50 on human V2 receptor and at human V1a receptor were 4.5 nM and 2.4 nM, respectively.

Values taken from patent US9034855B2, “Substituted phenylacetate and phenylpropane amides and use thereof” (Bayer Intellectual Property GmbH, priority 2010, dated 2015).
